Assay results from patent US20180110796A1, “COMPOSITIONS AND METHODS FOR THE TREATMENT OF HBV INFECTION” (Spring Bank Pharmaceuticals, Inc., priority 2015, published 2018).

How the values were obtained:
[1] = test system: HCV, Norovirus and RSV; experiment: In vitro and in vivo studies against RNA viruses
From the text: During viral infections, virus-derived nucleic acids (both DNA and RNA) are mainly sensed by certain pattern-recognition receptors such as RIG-1 and NOD2 which are located within the cytoplasm of cells, including hepatocytes. Binding of these viral sensor proteins to PAMP within the viral nucleic acids activates downstream signaling pathways which include the mitochondrial antiviral signaling protein (MAVS) leading to the induction of the IFN-regulatory factor-3 (IRF-3) and NF-κB dependent gene expression, and the subsequent production of type I and type III IFNs and inflammatory cytokines. Thus, sensing of viral nucleic acids is a crucial process to induce antiviral innate immune responses for limiting viral replication and for activation of adaptive immunity. For HBV it has been recently shown that RIG-1 sensing is mediated through recognition of the 5′-end ϵ region of the HBV pg RNA which leads to the induction of type III rather than type I IFNs in human primary hepatocytes in response to in vitro infection. In addition, activated RIG-1 is able to counter-act the interaction of the HBV polymerase protein with the HBV pgRNA in an IFN pathway independent manner resulting in suppressed viral replication. […]

[2] = test system: IFN-α, IFN-β, CXCL10, IL-6, ISG15, OAS1, RIG-I/NOD2 pathway transcripts; experiment: Host immune response gene transcripts in blood and liver by real time PCR (Example 2); format: in vivo, woodchuck (Marmota monax)
Protocol: Immune responses associated with Formula (IIa) treatment were determined by changes in RNA transcript levels of IFN-α, IFN-β, IFN-γ induced protein 10 (IP-10 or CXCL10), interleukin 6 (IL-6), interferon-induced 17 kDa protein (ISG15), and 2′-5′-oligoadenylate synthetase 1 (OAS1) in blood and liver using PCR techniques. Whole blood was collected into PAXgene blood tubes (Qiagen, Redwood City, Calif.) at pretreatment (week-1 and T0), during treatment (weeks 6 and 12), and during follow-up (week 18) and stored at −70° C. until use. Total RNA was isolated with on-column DNase I digestion using the PAXgene Blood miRNA Kit (Qiagen). Total RNA was further isolated from liver biopsy samples collected at pretreatment (week-1), during treatment (weeks 6 and 12), and at the end of the study (week 20) using the RNeasy Mini Kit (Qiagen) with on-column DNase I digestion using the RNase-Free DNase Set (Qiagen). Following reverse transcription of mRNA with the High Capacity cDNA Reverse Transcription Kit (Applied Biosystems) using oligo(dT), complementary (c) DNA samples were amplified on a 7500 Real Time PCR System instrument (Applied Biosystems) using TaqMan Gene Expression Master Mix (Applied Biosystems) and woodchuck-specific primers and probes (Supplementary Table 1). Woodchuck 18S rRNA expression was used to normalize target gene expression. Transcription levels of target genes were calculated as a fold-change relative to pretreatment level at week-1 (liver) or at T0 (blood) using the formula 2^−ΔΔCt. Samples from a subset of woodchucks from the LD and HD groups were analyzed for expression changes of genes involved in the RIG-I/NOD2 pathway induced by Formula (IIa), including RIG-I, NOD2, transmembrane protein 173 (TMEM173 or STING), interferon regulatory factor 3 (IRF3), and IRF7.

[3] = Plasma levels by LC-MS after oral Formula (IIa) (Example 2); format: in vivo, woodchuck (Marmota monax); conditions: 15 and 30 mg/kg oral, approximately 2 hours post-dose
Protocol: Plasma levels of Formula (Ia) were evaluated at pretreatment (T0) and then bi-weekly throughout the study at approximately 2 hours post-dose. Woodchuck plasma was analyzed by LC-MS and quantified using isotopically enriched internal standards.

[4] = test system: wild type HBV or resistant variants of HBV (polymerase M204V, M204I, L180M, L180M/M204V, N236T); experiment: Antiviral assays in cells chronically infected with wild type HBV or resistant variants (Example 4); format: cell-based; conditions: added to the cells daily for nine consecutive days
Protocol: Antiviral assays were carried out in cells chronically infected with resistant variants of HBV. In order to gauge the efficacy of Formula (IIa) and the antiviral nucleoside analogs lamivudine (3TC) and adefovir dipivoxil (ADV) against the tested strains, the in vitro activity (EC50, μM) was determined using six different cell samples chronically infected with HBV. Each cell sample was infected with either wild type HBV or a resistant variant of HBV, wherein the resistant variants comprise mutations in the HBV polymerase (P) at the following amino acid positions: M204V, M204I, L180M, L180M/M204V, and N236T. In each assay, Formula (IIa), 3TC, or ADV was added to the cells daily for nine consecutive days.

[5] = Tolerability / drug safety of oral Formula (IIa) in chronic WHV carrier woodchucks (Example 2); format: in vivo, woodchuck (Marmota monax)
From the text: All woodchucks used in this study were born in captivity and infected at 3 days of age with the cWHV7P2a inoculum containing WHV strain 7-11 (WHV7). cWHV7P2a has the same biological and virological characteristics as the parent cWHV7P2 inoculum as both were derived from cWHV7P1. Chronically infected animals were confirmed positive for serum WHV DNA and WHV surface antigen (WHsAg) and had undetectable antibodies against WHsAg (anti-WHs) at approximately 1 year post-infection. Absence of liver tumors in woodchucks with low gamma-glutamyl transferase (GGT) was confirmed by ultrasonography. Chronic WHV carrier woodchucks were assigned and stratified by gender, body weight, and by pretreatment serum markers (WHV DNA and WHsAg loads and serum GGT and sorbitol-dehydrogenase (SDH) levels) into two groups (n=5 each). Woodchucks were treated daily, orally with either a low (15 mg/kg) or high dose (30 mg/kg) of Formula (IIa) for 12 weeks. For select assays, blood and liver samples from five age-matched chronic WHV carrier woodchucks were included for comparison of basal expression levels of immune response genes in untreated animals with pretreated levels in Formula (IIa) treated animals.
Various measurements (body weight, body temperature, clinical chemistry, and hematology) were obtained weekly to monthly throughout the study to monitor drug safety. Serum and hepatic WHV parameters, host immune response parameters, and drug safety parameters were compared to the values at pretreatment and between both dose groups using unpaired Student's t-test with equal variance. P values of <0.05 were considered statistically significant.

[6] = 15 and 30 mg/kg daily oral, 12 weeks

Compound: COC1[C@@H](OP(=O)(OC[C@H]2O[C@@H](n3cnc4c(N)ncnc43)C[C@H]2O)SCOC(=O)OC(C)C)[C@@H](CO)O[C@H]1n1ccc(=O)[nH]c1=O (stereo partly shown) [Formula (IIa)]
- antiviral activity against RNA viruses including HCV, Norovirus and RSV [1]: potent antiviral activity
- activation of the RIG-I/NOD2 pathway (liver transcript levels of RIG-I, NOD2, TMEM173, IRF3) ([2]; 15 or 30 mg/kg, n=3 each): long-lasting activation
- CXCL10 expression in liver ([2]; both dose groups, liver): significantly induced
- mRNA expression of type I IFNs (IFN-α, IFN-β) and ISGs (OAS1, ISG15) in blood versus pretreatment ([2]; high dose 30 mg/kg, blood): significant induction
- expression of IFN-β, IL-6 and OAS1 in liver versus pretreatment ([2]; high dose group, liver): significantly increased expression
- expression of IL-6 and CXCL10 in blood versus pretreatment ([2]; low and high doses, blood): significantly induced
- expression of IFN-α in liver versus pretreatment ([2]; low dose group, liver): significantly induced
- plasma exposure following oral administration [3]: dose-dependent
- efficacy against cells infected with wild type and resistant HBV strains (in vitro activity, FIG. 31) [4]: efficacious against cells infected with all the HBV strains tested
- mortality during the study [5, 6]: no mortality
- tolerability (gross observations, body weights, body temperatures, hematology, clinical chemistry) [5, 6]: well-tolerated
- serum levels of ALT and AST during and following treatment ([5]; both dose groups): essentially remained unchanged or declined slightly
- serum SDH levels during administration ([5]; especially initial 4-8 weeks, more pronounced in the high dose group): trend towards elevated
